Data as given in ChEMBL document CHEMBL1129278, “Binding of arylpiperazines, (aryloxy)propanolamines, and tetrahydropyridylindoles to the 5-HT1A receptor: contribution of the molecular lipophilicity potential to three-dimensional quantitative structure-affinity relationship models” (J Med Chem, 1996).

Target: T1, 5-hydroxytryptamine receptor 1A (Rattus norvegicus, UniProt P19327)
T1 sequence (P19327 whole entry): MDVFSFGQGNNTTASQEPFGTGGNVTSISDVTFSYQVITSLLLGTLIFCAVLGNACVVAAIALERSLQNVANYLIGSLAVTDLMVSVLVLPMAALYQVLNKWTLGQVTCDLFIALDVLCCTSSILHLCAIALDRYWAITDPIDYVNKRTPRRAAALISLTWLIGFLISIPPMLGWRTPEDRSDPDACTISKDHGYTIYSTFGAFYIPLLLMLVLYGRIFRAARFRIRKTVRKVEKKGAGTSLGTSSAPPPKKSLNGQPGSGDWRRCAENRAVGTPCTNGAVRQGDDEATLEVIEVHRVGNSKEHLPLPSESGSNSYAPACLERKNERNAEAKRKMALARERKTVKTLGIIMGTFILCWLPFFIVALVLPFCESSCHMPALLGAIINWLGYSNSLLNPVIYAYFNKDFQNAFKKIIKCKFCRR

Structure (SMILES)	Ki [µM]
CCCN(CCCCN1C(=O)CC2(CCCC2)CC1=O)C1COc2cccc(O)c2C1 (stereo in doubt; 228)	0.01
CCCN(C1COc2cccc(OC)c2C1)N1C(=O)C2CCCC2C1=O (stereo in doubt; 247)	0.001
CCCN(C1COc2cccc(OC)c2C1)N1C(=O)C2CCCC2C1=O (stereo in doubt; 255)	0.000501
CCCN(CCCCN1C(=O)CC2(CCCC2)CC1=O)C1COc2cccc(O)c2C1 (stereo in doubt; 258)	0.000501
CN(C)CCc1c[nH]c2ccc(O)cc12 [BUFOTENINE]	0.0251
COc1ccccc1OCCNCC(O)COc1cccc2[nH]c3ccccc3c12 (stereo not drawn) [CARVEDILOL]	0.00316
CCN(CC)C(=O)Nc1ccc(OCC(O)CNC(C)(C)C)c(C(C)=O)c1 (stereo not drawn) [CELIPROLOL]	8.91
Cn1cc(C(F)(F)F)nc1-c1ccc(OCC(O)CNCCOc2ccc(O)c(C(N)=O)c2)cc1 (stereo not drawn) [CGP-20712A]	0.603
CN(C)CCCC1(c2ccc(F)cc2)OCc2cc(C#N)ccc21 (stereo not drawn) [CITALOPRAM]	50.1
C[C@H](CCc1ccccc1)NC[C@H](O)c1ccc(O)c(C(N)=O)c1 [DILEVALOL]	0.295
CC(C)NCC(O)COc1ccccc1-n1cccc1 (stereo not drawn) [ISAMOLTAN]	0.049
COc1ccc2[nH]cc(CCN(C)C)c2c1 [MEBUFOTENIN]	0.0055
C=CCOc1ccccc1OCC(O)CNC(C)C (stereo not drawn) [OXPRENOLOL]	0.0933
CC(C)(C)NC[C@H](O)COc1ccccc1C1CCCC1 [PENBUTOLOL]	0.0024
c1ccc(N2CCNCC2)cc1 [PHENYLPIPERAZINE]	1.51
CC(C)NCC(O)COc1cccc2[nH]ccc12 (stereo not drawn) [PINDOLOL]	0.0219
CC(C)(C)NCC(O)COc1cccc2c1SCCC2 (stereo not drawn) [TERTATOLOL]	0.0186
CC(C)(C)NC[C@H](O)COc1nsnc1N1CCOCC1 [TIMOLOL]	0.617
